Counter-ions that a name gives are not always drawn.

The source of these data is patent publication US20240024647A1, “MUCOSA PERFORATION” (LTS LOHMANN THERAPIE-SYSTEME AG, priority 2020, published 2024).

Data set [1] is described as follows: Solubility of the active ingredient in the acceptor medium. Format: physicochemical.
A short description of data set [2]: In vitro permeation by Franz diffusion cells, mucosa with versus without steel microneedle system (AdminPatch). On the procedure:
The following test series with the selected active ingredients in each case were performed within the scope of a typical in vitro permeation by means of Franz diffusion cells (volume 10 mL) at 37° C. The used acceptor medium was replaced completely for a new one at predetermined replacement times, and the content of permeated active ingredient amount in these acceptor solutions was determined by means of HPLC.
The contact pressure was 3 N by thumb pressure, monitored by means of a Roberval balance. The pressing time was 10 sec.
A total of 187 microneedles were applied to an area of 0.785 cm^2 (microneedle density=238 per cm^2).
For Example 4, the donor solution was injected (900 μl) onto or into the used dentistry tamponade (length and diameter 1 cm each). The microneedle system was fixed to the underside of the tamponade and was applied to the mucosa surface perpendicularly through the head of the Franz cells and fixed in a defined position by a suitable stopper and with moderate pressure.
Phosphate buffer (pH 5.5) was used as acceptor medium and an addition of 2 wt. % Tween® 20 was used as organic solvent to maintain “sink” conditions. (sink=current solubility at time t of an active ingredient in an acceptor medium of at most 30% of its saturation solubility in this acceptor medium)
A saturated solution of riociguat in clove oil (Primavera® clove bud organic essential oil, Oy-Mittelberg, Germany) was used as donor solution.
(§1) Dermatomised skin from the oesophagus of a pig with a layer thickness of 400 μm was used as skin model.
0.025 molar HEPES buffer (pH 7.4) was used as acceptor medium.
Phosphate buffer (pH 5.5) was used as acceptor medium and an addition of 2 wt. % Tween® 20 was used as organic solvent to maintain “sink” conditions. […]
The surface of the mucosa was treated with the “AdminPatch™” microneedle system (needle length 600 μm) from the company “nanobioSciences” (CA, USA) made of steel with a contact pressure of 3 N by thumb pressure, monitored by means of a Roberval balance for 10 sec. […]

The nature of data set [3]: In vitro permeation by Franz diffusion cells, dissolving microneedle system loaded with active ingredient, applied into the mucosa versus in reverse. On the procedure:
The following test series with the selected active ingredients in each case were performed within the scope of a typical in vitro permeation by means of Franz diffusion cells (volume 10 mL) at 37° C. The used acceptor medium was replaced completely for a new one at predetermined replacement times, and the content of permeated active ingredient amount in these acceptor solutions was determined by means of HPLC. […]
For preparation, sumatriptan succinate, polyvinylpyrrolidone, Polysorbate 80 and glycerol were dissolved in water with the proportions 5:20:1:1:73 (in each case in wt. %). The finished solution was poured into negative needle moulds made of silicone, the surface of which was coated with a thin platinum layer by vacuum metallisation. The negative moulds were then dried overnight at room temperature. The dried microneedle systems were carefully pressed out from the dies after the drying process and stored under exclusion of moisture until their further use. The active ingredient content was 4.25 mg sumatriptan succinate per 0.785 cm^2 of system or 5.41 mg/cm^2.
The length of the microneedles of the used microneedle system was 500 μm. A total of 600 microneedles were applied to an area of 0.785 cm^2 (microneedle density=764 per cm^2).
as §1
The microneedle system remained in the mucosa throughout the permeation period, the cell head additionally also having been filled with lead balls in order to simulate the in vivo contact pressure (for example between mandible and oral mucosa) in the oral cavity. As protection for the dissolving microneedle system, a separation film based on siliconised PET (polyethylene terephthalate) was also introduced in between in front of the lead balls.

The mark [4] stands for this setting: dissolving microneedle system loaded with sumatriptan base, acceptor phosphate buffer pH 6.0 + 2 wt. % Tween 20, FIG. 9.

`CN1CCc2cccc3c2[C@H]1Cc1ccc(O)c(O)c1-3` [apomorphine hydrochloride]: the “solubility in acceptor medium” value in data set [1] (phosphate buffer (pH 6.8) with 0.1 wt. % L-ascorbic acid) is on record as “very easily dissolved”.

Consider `C=C(C)[C@@H]1CCC(C)=C[C@H]1c1c(O)cc(CCCCC)cc1O` [cannabidiol], for which the “active ingredient flux after pretreatment with a microneedle system, factor higher in comparison to administration without pretreatment” value in data set [2] (saturated cannabidiol solution in clove oil, dentistry tamponade with microneedle system, acceptor phosphate buffer pH 5.5 + 2 wt. % Tween 20, FIG. 4) is 2.0.

As to `CNS(=O)(=O)Cc1ccc2[nH]cc(CCN(C)C)c2c1` [sumatriptan base], in data set [3] (setting [4]), the “active ingredient flux in the comparative example (system applied in reverse, not penetrating into the mucosa)” value is given as “not possible to measure an active ingredient flux” and the “active ingredient flux with the microneedle system applied in the mucosa” value is “high active ingredient flux could be observed”. Besides, the “solubility in acceptor medium” value in data set [1] (phosphate buffer (pH 6.0) with 2 wt. % Tween 20) is recorded as “very easily dissolved”.

`CNS(=O)(=O)Cc1ccc2[nH]cc(CCN(C)C)c2c1` [sumatriptan succinate]: the “first permeation value after 10 min, factor higher in comparison to the comparative example” value in data set [3] (pig, 10 min, pH 7.4) is on record as “approximately 4”. Moreover, in data set [3] (pig, pH 7.4), the “active ingredient flux with the microneedle system applied in the mucosa, factor higher in comparison to the system without penetration into the mucosa” value turned out to be 2.0. Moreover, the “solubility in acceptor medium” value in data set [1] (phosphate buffer (pH 7.4) without further additives) is listed as “very easily dissolved”.

As for `CCCCCc1cc(O)c2c(c1)OC(C)(C)[C@@H]1CCC(C)=C[C@@H]21` [tetrahydrocannabinol], in data set [2] (saturated tetrahydrocannabinol solution in clove oil, acceptor phosphate buffer pH 5.5 + 2 wt. % Tween 20, FIG. 3), the “time after which permeated active ingredient could be detected without pretreatment” value was 3 h. Moreover, the “permeated active ingredient without pretreatment, factor lower in comparison to pretreated mucosa” value in data set [2] (saturated tetrahydrocannabinol solution in clove oil, value after 3 hours, FIG. 3) is given as 5.

Turning to `CC(=O)O[C@]1(C(C)=O)CC[C@H]2[C@@H]3CCC4=CC(=O)CCC4=C3[C@@H](c3ccc(N(C)C)cc3)C[C@@]21C` [ulipristal acetate], in data set [1] (phosphate buffer (pH 7.4) with 2 wt. % Tween 20), the “solubility in acceptor medium” value was “very easily dissolved”.
